The values that follow come from patent publication US20060035901A1, “Methotrexate derivatives useful for treating cancer and arthritis” (Serenex, Inc., priority 2004, published 2006).

The target in this experiment is T1, pyruvate carboxylase (PYC) (Sus scrofa, UniProt A0A8W4F6F0).
T1 construct: a porcine liver proteome was run over an ATP-Sepharose™ column; from tissue; host or cells: porcine liver
T1 sequence (A0A8W4F6F0 1-1157): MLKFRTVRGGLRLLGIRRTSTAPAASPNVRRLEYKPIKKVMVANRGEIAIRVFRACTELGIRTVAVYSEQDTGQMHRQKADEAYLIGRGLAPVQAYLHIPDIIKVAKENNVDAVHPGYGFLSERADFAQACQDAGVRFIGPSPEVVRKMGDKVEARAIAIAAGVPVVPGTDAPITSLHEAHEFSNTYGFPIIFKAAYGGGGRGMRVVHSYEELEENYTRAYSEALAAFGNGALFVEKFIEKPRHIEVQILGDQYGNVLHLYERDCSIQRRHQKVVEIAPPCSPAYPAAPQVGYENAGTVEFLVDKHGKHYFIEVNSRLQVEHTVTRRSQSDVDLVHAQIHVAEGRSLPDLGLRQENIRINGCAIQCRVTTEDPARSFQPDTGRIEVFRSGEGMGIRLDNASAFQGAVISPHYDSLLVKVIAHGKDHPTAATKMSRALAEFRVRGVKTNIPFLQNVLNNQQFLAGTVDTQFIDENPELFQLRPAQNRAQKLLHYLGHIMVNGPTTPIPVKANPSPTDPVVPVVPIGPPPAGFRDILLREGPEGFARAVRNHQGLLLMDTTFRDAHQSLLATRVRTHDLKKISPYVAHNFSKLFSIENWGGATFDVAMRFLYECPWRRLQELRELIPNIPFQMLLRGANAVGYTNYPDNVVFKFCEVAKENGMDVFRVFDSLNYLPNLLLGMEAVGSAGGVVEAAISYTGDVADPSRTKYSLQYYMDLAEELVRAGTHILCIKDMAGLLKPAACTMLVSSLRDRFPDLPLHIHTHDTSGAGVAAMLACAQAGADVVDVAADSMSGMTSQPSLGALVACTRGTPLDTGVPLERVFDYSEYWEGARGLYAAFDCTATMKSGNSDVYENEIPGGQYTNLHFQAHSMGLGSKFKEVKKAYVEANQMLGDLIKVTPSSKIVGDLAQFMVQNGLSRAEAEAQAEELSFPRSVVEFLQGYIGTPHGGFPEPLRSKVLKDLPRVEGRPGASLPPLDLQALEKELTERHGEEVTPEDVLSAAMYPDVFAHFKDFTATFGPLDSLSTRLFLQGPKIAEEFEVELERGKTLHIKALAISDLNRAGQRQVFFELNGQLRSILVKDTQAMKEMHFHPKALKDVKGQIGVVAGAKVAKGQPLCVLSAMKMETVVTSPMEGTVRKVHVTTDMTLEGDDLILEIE
The experiment can be described thus: Elution of PYC from ATP-Sepharose column loaded with porcine liver proteome, IC50 estimate. It is filed as binding. The following applies: estimated from percent of protein eluted from ATP-Sepharose column, read-out: Approximate IC50 for PYC. The method, then:
Similar experiments were carried out to compare the IC50 values for PYC, PCCA, and PCCB. In these trials, a porcine liver proteome was run over an ATP-Sepharose™ column to bind all purine-binding proteins. The ATP-Sepharose™ column was washed several times, and then eluted with the compound of Formula III at concentrations of 1 μM, 5 μM, 10 μM, 50 μM, 100 μM, and 500 μM to identify proteins that bound to this compound. (The amount of protein eluted at the higher concentration ranges plateaued, thus confirming that the entire fraction of bound protein had been eluted.) The eluted fractions were run on a 1-dimensional SDS polyacrylamide gel.
Gels were stained with a fluorescent stain such as sypro ruby (a highly sensitive fluorescent protein stain that can readily detect less than 1 fmol of total protein, i.e., less than 0.04 ng for a 40 kDa protein). The gels were imaged using a standard flat bed gel imager and the amount of protein estimated by densiometry. The percent of protein eluted from the column at each concentration was determined and IC50 values were calculated from these estimates. Where necessary, the eluted proteins were cut out of the gel, and identified using mass spectral techniques.
These steps were repeated with each of the compounds of Formulas IV-X, MTX, and the c series derivative. The values obtained were then compared to those for DHFR.

Molecules are shown by their SMILES.

In general, IC50 refers to the concentration that inhibits the measured activity by half. With `C#CCN(Cc1cnc2nc(N)nc(N)c2n1)c1ccc(C(=O)NC(CCC(=O)O)C(=O)O)cc1OC(F)(F)F` (stereo not shown) [Formula IX], the IC50 was 7 µM.

In the case of `C#CCN(Cc1cnc2nc(N)nc(N)c2n1)c1ccc(C(=O)NC(CCC(=O)O)C(=O)O)cc1C` (stereo not shown) [Formula III, 2-{4-[(2,4-diamino-pteridin-6-ylmethyl)-prop-2-ynyl-amino]-3-methyl-benzoylamino}-pentanedioic acid], the half-inhibitory concentration (IC50) was 3.8 µM.

For `Cc1cc(C(=O)NC(CCC(=O)O)C(=O)O)ccc1N(Cc1ccoc1)Cc1cnc2nc(N)nc(N)c2n1` (stereo not shown) [Formula VII], the IC50 is 3.5 µM.

On to `C#CCN(Cc1cnc2nc(N)nc(N)c2n1)c1ccc(C(=O)NC(CCC(=O)O)C(=O)O)cc1OC` (stereo not shown) [Formula VIII], for which the IC50 was 3.75 µM.
